Data reported in ChEMBL document CHEMBL1201862, “PubChem BioAssay data set” (2004).
Active and inactive are the calls of the source.

Tests used:
[1] = molecular target: G-protein coupled receptor 183 (Homo sapiens, UniProt P32249); assay: SAR confirmation of small molecule antagonists of the EBI2 receptor via a luminescent beta-arrestin assa.; type: functional
[2] = molecular target: Phospholipase D1 (Homo sapiens, UniProt Q13393); assay: PLD1 Cellular Concentration Response Study.; type: functional
[3] = molecular target: Phospholipase D2 (Homo sapiens, UniProt O14939); assay: PLD2 Cellular Concentration Response Study.; type: functional
[4] = HepG2 cell cytotoxicity, dose response, cytotoxicity control, cherry-picked samples (AID 1159577); type: functional, cell-based
[5] = P. falciparum Dd2 growth inhibitors, dose response, SYBR Green, cherry-picked samples (AID 1159567); type: functional, cell-based
[6] = P. falciparum 3D7-ScDHODH growth inhibitors, dose response, SYBR Green, dry powder samples (AID 1159570); type: functional, cell-based;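 further: parasite growth measured after 72 hours of compound exposure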
[7] = P. falciparum ATP4 D1247Y mutant growth inhibitors, dose response, NITD609-resistant line, SYBR Green, dry powder (AID 1159571); type: functional, cell-based;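 further: parasites synchronized at ring stage by sorbitol before testing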
[8] = HepG2 cell cytotoxicity, dose response, cytotoxicity control, plate reader, dry powder samples (AID 1159569); type: functional, cell-based;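 further: inhibitor potency with signal falling toward the positive control level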
[9] = P. falciparum Dd2 growth inhibitors, dose response, SYBR Green, dry powder samples (AID 1159566); type: functional, cell-based;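 further: potency for growth inhibition with lower SYBR green DNA signal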
[10] = molecular target: Metabotropic glutamate receptor 7 (Homo sapiens, UniProt Q14831); assay: mGlu7 positive allosteric modulators, dose response, cell-based, calcium mobilization, Galpha15 (AID 743384); type: functional
[11] = HEK293 cell cytotoxicity, dose response, cytotoxicity control, ATP luminescence, dry powder, set 3 (AID 743131); type: functional, cell-based
[12] = A549 cell cytotoxicity, dose response, cytotoxicity control, CellTiter-Glo luminescence, dry powder, set 5 (AID 743158); type: functional, cell-based
[13] = HepG2 cell cytotoxicity, dose response, cytotoxicity control, ATP luminescence, dry powder, set 2 (AID 743129); type: functional, cell-based
[14] = Dose-response inhibition of insulin secretion in a rat insulinoma line at 5 mM glucose (AID 1117331); type: functional, cell-based; settings: INS-1E
[15] = cells; type: functional, cell-based; settings: INS-1E

Sequence of Phospholipase D2 (O14939 whole entry): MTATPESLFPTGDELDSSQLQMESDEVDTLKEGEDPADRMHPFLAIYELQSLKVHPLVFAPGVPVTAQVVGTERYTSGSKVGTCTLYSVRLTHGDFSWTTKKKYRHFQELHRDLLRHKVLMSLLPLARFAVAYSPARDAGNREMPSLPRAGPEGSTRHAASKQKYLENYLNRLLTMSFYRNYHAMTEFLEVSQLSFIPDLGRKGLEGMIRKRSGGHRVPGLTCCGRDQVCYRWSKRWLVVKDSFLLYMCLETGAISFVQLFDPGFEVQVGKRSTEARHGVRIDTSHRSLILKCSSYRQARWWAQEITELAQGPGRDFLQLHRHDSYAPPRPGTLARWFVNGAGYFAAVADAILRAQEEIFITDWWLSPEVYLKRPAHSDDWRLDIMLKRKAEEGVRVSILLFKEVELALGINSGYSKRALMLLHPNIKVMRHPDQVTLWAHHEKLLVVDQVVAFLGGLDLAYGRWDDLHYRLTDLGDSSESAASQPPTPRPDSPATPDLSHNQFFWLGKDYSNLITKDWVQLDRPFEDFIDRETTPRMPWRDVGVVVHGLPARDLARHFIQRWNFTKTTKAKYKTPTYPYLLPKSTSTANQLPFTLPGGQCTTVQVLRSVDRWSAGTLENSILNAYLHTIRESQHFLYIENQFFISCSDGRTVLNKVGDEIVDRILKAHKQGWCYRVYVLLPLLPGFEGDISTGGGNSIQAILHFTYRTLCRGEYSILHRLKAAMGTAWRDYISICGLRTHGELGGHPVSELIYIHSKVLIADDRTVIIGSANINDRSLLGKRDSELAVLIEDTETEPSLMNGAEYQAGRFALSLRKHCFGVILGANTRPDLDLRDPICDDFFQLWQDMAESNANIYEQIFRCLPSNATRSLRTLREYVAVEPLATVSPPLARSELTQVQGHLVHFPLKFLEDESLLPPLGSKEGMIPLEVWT
Sequence of Phospholipase D1 (Q13393 whole entry): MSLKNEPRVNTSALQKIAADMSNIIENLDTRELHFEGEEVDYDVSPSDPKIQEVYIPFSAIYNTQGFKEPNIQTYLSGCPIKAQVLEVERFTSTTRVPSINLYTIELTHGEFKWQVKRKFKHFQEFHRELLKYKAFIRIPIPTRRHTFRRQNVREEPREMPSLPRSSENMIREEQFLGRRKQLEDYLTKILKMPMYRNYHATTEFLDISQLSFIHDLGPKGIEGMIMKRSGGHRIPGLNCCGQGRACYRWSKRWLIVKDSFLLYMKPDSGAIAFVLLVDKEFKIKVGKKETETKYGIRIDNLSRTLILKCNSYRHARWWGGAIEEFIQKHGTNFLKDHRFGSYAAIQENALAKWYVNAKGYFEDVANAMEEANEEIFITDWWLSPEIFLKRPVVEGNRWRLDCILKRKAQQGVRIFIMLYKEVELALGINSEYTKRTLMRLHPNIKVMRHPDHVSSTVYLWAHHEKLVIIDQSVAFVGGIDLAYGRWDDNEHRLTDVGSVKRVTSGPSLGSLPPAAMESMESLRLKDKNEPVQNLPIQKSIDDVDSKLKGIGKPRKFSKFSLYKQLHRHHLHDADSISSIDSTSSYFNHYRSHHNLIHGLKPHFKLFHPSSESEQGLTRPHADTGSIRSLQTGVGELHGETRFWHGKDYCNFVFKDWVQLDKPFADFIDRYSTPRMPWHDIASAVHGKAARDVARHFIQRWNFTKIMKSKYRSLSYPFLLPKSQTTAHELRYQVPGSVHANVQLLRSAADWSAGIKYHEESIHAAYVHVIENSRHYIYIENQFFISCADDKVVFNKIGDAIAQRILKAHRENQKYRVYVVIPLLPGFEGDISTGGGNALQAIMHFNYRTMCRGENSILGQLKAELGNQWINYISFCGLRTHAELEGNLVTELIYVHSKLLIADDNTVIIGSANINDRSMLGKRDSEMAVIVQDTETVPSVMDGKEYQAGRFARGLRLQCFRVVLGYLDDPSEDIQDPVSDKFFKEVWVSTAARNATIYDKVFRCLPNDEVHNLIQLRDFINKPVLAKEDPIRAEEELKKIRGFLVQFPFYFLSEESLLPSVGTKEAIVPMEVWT
Sequence of Metabotropic glutamate receptor 7 (Q14831 whole entry): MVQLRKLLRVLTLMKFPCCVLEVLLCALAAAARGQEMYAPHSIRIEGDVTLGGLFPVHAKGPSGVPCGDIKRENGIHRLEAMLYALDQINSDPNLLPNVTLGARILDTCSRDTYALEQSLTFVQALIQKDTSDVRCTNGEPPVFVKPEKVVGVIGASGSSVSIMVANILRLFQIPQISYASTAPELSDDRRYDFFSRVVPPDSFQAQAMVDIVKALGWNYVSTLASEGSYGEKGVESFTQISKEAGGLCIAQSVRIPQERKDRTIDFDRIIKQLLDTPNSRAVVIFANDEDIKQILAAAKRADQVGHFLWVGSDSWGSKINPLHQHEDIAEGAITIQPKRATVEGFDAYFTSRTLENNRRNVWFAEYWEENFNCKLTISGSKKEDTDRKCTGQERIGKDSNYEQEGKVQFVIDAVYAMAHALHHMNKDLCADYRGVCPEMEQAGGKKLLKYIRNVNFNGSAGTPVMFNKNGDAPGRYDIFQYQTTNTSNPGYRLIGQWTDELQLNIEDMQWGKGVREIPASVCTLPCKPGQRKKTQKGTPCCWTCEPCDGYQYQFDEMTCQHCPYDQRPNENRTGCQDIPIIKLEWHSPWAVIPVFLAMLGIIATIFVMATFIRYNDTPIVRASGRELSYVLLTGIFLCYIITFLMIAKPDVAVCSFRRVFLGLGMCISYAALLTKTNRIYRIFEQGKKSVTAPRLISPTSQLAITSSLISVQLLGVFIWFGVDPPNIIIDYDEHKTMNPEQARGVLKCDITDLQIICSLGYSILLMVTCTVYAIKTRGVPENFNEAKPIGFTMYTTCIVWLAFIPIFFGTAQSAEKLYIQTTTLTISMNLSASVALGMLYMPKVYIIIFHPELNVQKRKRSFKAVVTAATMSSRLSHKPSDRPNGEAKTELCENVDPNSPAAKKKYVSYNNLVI
Sequence of G-protein coupled receptor 183 (P32249 whole entry): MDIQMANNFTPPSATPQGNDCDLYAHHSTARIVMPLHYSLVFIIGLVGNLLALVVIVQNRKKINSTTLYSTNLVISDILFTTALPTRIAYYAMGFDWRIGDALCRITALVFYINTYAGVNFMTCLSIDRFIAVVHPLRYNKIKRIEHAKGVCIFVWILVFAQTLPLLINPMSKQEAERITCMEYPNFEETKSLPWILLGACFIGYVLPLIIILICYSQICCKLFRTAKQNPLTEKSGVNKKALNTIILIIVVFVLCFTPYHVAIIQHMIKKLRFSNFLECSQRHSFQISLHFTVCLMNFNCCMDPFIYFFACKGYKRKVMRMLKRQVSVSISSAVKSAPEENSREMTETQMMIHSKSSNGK

O=C(/C=C/c1ccc(F)cc1)N1CCN(S(=O)(=O)c2ccccc2F)CC1
IC50 [1]: 19.4 nM (active)

O=C(NCCN1CCC2(CC1)C(=O)NCN2Cc1ccc(Cl)cc1)c1ccc2ccccc2c1
IC50 [2]: 6.78 µM (active)
IC50 [3]: 1.54 µM (active)

O=C(C1CCC1)N1C[C@@H]2N[C@H](C1)[C@@H]2c1ccc(/C=C/c2ccccc2)cc1
AC50 [4]: 11.5 µM (active)
AC50 [5]: 3.76 µM (active)

O=C(Nc1ccc(C(F)(F)F)cc1)N1C[C@@H]2N[C@H](C1)[C@@H]2c1ccc(-c2cccnc2)cc1
AC50 [6]: 14.6 nM (active)
AC50 [7]: 22 nM (active)
AC50 [8]: 18.6 µM (active)
AC50 [5]: 1.12 µM (active)
AC50 [9]: 35.4 nM (active)

COC(=O)c1ccc(-n2c(C)cc(C(=O)CSc3ccc(N(C)C(C)=O)cc3)c2C)cc1
EC50 [10]: 10 µM (active)

CCOC(=O)c1c(-c2ccc(C(C)(C)C)cc2)csc1NC(=O)CN1CCN(CC)CC1
AC50 [11]: 9.03 µM (active)
AC50 [12]: 11.9 µM (active)
AC50 [13]: 15.3 µM (active)

Cc1cc2c(OCC(CNC(C)(C)C)OC(=O)c3ccccc3)cccc2[nH]1 (stereo unspecified) [BOPINDOLOL]
IC50 [14]: 14.6 µM (inactive)
IC50 [15]: > 33.3 µM (inactive)
